US9034899B2, “Aryl, heteroaryl, and heterocycle substituted tetrahydroisoquinolines and use thereof” (Albany Molecular Research, Inc., priority 2009, dated 2015)
pIC50: −log10 of the molar value.

Columns and labels:
hDAT = hDAT (Homo sapiens (Human), UniProt Q01959); assay: DAT radioligand binding assay ([125I]RTI-55, HEK-293 membranes); settings: (+)-enantiomers; read-out: DAT IC50
Method: (§1) Recombinant HEK-293 cells expressing either the hSERT, hDAT, or hNET proteins were harvested from T-175 flasks as follows. The medium was removed from the flasks and the cells rinsed with HBSS without Ca and without Mg. The cells were then incubated for 5-10 minutes in 10 mM Tris-Cl, pH 7.5, 5 mM EDTA before the cells were lifted with a combination of pipetting and scraping, as needed. The cell suspension was collected into centrifuge bottles and homogenized for 30 seconds with a Polytron homogenizer. The suspension was centrifuged for 30 minutes at 32,000×g, 4° C. The supernatant was decanted and the pellet resuspended and homogenized in 50 mM Tris-Cl, pH 7.5, 1 mM EDTA for 10 seconds. The suspension was then centrifuged again for 30 minutes at 32,000×g, 4° C. The supernatant was decanted and the pellet resuspended in 50 mM Tris-Cl, pH 7.5, 1 mM EDTA and briefly homogenized. A Bradford assay (Bio-rad) was performed and the membrane preparation diluted to 2 mg/ml with 50 mM Tris-Cl, pH 7.5, 1 mM EDTA. Aliquots were prepared, and then frozen and stored at −80° C.
Compounds were dissolved in 100% DMSO at a concentration 100 times the desired highest assay concentration, serially diluted 1:3 in 100% DMSO, and 0.4 μl/well of each solution was dispensed to a Nunc polypropylene, round bottom, 384-well plate. 100% inhibition is defined with 0.4 μl/well of 1 mM GBR-12935 dissolved in DMSO. 20 ul/well of a 2× membrane preparation (12.5 μg/ml in 30 mM sodium phosphate buffer, pH 7.9 at 4° C.) and 20 μl/well of a 2× radioligand solution ([…] [^125I]RTI-55 in 30 mM sodium phosphate buffer, pH 7.9 at 4° C.) were added to the well and the reaction incubated for 1 hour at room temperature. The contents of the assay plate were then transferred to a Millipore MultiscreenHTS GF/B filter plate which was pretreated with 0.5% PEI for at least one hour. The plate was vacuum-filtered and washed with 7 washes of 100 μl/well 50 mM Tris-Cl, pH 7.5, 120 mM NaCl, 5 mM KCl chilled to 4° C. The filtration and washing were completed in less than 90 seconds. The plates were air-dried overnight, 12 μl/well of MicroScint scintillation fluid added, and the plates counted in a Trilux.
(§2) The raw data was normalized to percent inhibition using control wells defining 0% (DMSO only) and 100% (selective inhibitor) inhibition which were run on each plate. Each plate was run in triplicate, and the concentration response curve thus generated was fit using the four-parameter dose response equation, Y=Bottom+(Top-Bottom)/(1+10^((LogIC50−X)*HillSlope)) in order to determine the IC50 value for each compound. The radioligand concentration chosen for each assay corresponds to the Kd concentration determined through saturation binding analysis for each assay.

hNET = hNET (Homo sapiens (Human), UniProt P23975); assay: NET radioligand binding assay ([3H]nisoxetine, HEK-293 membranes); settings: (+)-enantiomers
Sequence of hNET (P23975 whole entry): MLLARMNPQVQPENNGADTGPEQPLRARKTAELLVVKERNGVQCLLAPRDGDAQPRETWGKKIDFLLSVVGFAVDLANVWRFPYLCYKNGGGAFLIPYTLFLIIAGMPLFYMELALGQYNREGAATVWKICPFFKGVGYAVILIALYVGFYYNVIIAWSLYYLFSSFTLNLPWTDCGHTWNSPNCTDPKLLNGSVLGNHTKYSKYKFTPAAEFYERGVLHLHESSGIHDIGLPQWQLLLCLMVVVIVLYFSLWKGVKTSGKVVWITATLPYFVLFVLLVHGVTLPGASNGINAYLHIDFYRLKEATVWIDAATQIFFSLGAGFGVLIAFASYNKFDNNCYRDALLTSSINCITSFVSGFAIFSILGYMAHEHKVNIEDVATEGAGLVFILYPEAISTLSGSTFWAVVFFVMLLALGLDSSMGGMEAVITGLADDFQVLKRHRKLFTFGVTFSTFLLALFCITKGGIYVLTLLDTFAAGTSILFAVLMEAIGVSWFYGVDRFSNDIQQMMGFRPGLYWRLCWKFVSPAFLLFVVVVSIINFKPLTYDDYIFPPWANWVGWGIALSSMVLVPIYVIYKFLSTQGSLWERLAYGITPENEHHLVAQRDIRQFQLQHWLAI
Method: as §1
Compounds were dissolved in 100% DMSO at a concentration 100 times the desired highest assay concentration, serially diluted 1:3 in 100% DMSO, and 1.0 μl/well of each solution was dispensed to a Nunc polypropylene, round bottom, 384-well plate. 100% inhibition is defined with 1.0 μl/well of 10 mM desipramine dissolved in DMSO. 50 μl/well of a 2× membrane preparation (0.4 mg/ml in 50 mM Tris-Cl, pH 7.5, 120 mM NaCl, 5 mM KCl) and 50 μl/well of a 2× radioligand solution (4 nM [^3H]nisoxetine in 50 mM Tris-Cl, pH 7.5, 120 mM NaCl, 5 mM KCl) were added to the well and the reaction incubated for 1 hour at room temperature. The contents of the assay plate were then transferred to a Millipore MultiscreenHTS GF/B filter plate which was pretreated with 0.5% PEI for at least one hour. The plate was vacuum filtered and washed with 7 washes of 100 μl/well 50 mM Tris-Cl, pH 7.5, 120 mM NaCl, 5 mM KCl chilled to 4° C. The filtration and washing were completed in less than 90 seconds. The plates were air-dried overnight, 12 μl/well of MicroScint scintillation fluid added, and the plates counted in a Trilux.
as §2

SERT = assay: Occupancy assay, ex vivo binding in brain tissue, SERT
From the text: (§3) The general procedure for brain tissue collection and transporter occupancy assessment is briefly described as follows. Mice were sacrificed by asphyxiation in CO2, rats by decapitation and dogs by IV injection of euthanasia solution. For mice and rats, after the brains were removed from the skull, the forebrain tissue (removal of the brainstem and cerebellum) was used for SERT, NET, and DAT occupancy assessment. In dogs, the striatum was dissected for DAT occupancy and the remaining forebrain tissue (without the striatum, brainstem, and cerebellum) was used for SERT and NET occupancy assessment. The brain tissues were frozen in chilled isopentane and stored at −80° C. until homogenization.
(§4) The brain tissues were thawed and then homogenized using a polytron homogenizer (Kinematica). Sample aliquots were frozen immediately and stored at −80° C. Protein content was measured for each sample using a Coomassie protein assay kit (Pierce).
(§5) On the day of ex vivo binding for occupancy assessment, frozen sample aliquots were thawed and needle homogenized, and 100 μg of the tissue was incubated for SERT, NET, and DAT binding under assay conditions summarized in Table 2. After incubation, the reactions were terminated by the addition of ice-cold assay buffer and rapid filtration through a Brandel Cell Harvester using FPXLR-196 filters. The filters were washed twice with ice-cold incubation buffer, punched into a clear plate prior to the addition of 200 ul scintillation fluid per well. Radioligand was measured using a Wallac Microbeta liquid scintillation counter.
The specific binding was calculated by subtracting the value of the non-specific binding from that of the total binding in each sample. The percent occupancy was calculated as (1−specific binding in drug treated/specific binding in vehicle treated)×100%. For estimation of in vivo occupancy EC50 (total plasma concentration of compound producing 50% occupancy), plots of occupancy values versus plasma concentrations were fitted to a one-site binding model using nonlinear regression according to the following equation: % Occupancy=Emax*C/(EC50+C) where Emax is the maximal specific binding, C is the drug concentration, and EC50 is the total plasma concentration required for 50% binding site occupancy. Nonlinear regression was performed using GraphPad Prism version 3.00 (GraphPad Software, San Diego, Calif.).

NET = assay: Occupancy assay, ex vivo binding in brain tissue, NET
From the text: as §3, §4
as §5, with “After incubation, the reactions were terminated by the addition of ice-cold assay buffer and rapid filtration through a Brandel Cell Harvester using FPXLR-196 filters.” left out
The specific binding was calculated by subtracting the value of the non-specific binding from that of the total binding in each sample. The percent occupancy was calculated as (1−specific binding in drug treated/specific binding in vehicle treated)×100%. […] Nonlinear regression was performed using GraphPad Prism version 3.00 (GraphPad Software, San Diego, Calif.).

Sequence of hDAT (Q01959 whole entry): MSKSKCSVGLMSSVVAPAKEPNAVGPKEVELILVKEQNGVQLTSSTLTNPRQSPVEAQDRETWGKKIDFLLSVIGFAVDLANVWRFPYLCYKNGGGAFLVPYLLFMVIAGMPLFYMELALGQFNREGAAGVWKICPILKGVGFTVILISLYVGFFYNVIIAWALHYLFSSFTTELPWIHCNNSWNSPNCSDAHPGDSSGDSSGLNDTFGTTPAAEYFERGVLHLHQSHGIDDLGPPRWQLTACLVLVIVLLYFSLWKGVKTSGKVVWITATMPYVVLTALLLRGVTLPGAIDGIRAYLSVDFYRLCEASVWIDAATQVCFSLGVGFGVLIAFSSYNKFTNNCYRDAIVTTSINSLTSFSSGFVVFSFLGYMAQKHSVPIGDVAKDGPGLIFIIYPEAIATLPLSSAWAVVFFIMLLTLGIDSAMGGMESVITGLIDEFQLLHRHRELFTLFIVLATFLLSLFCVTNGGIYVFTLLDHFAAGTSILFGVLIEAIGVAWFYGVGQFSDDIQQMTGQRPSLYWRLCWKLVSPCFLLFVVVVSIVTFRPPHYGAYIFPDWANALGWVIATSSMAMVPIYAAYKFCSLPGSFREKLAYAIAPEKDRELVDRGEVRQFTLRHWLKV

| Structure (SMILES) | pIC50 (hDAT) | pIC50 (hNET) | SERT Occupancy % (SERT; dose 1 mg/kg, time point 1 h) [%] | NET Occupancy % (NET; dose 1 mg/kg, time point 1 h) [%] | SERT Occupancy % (SERT; dose 1 mg/kg, time point 3 h) [%] | NET Occupancy % (NET; dose 1 mg/kg, time point 3 h) [%] | SERT Occupancy % (SERT; dose 3 mg/kg, time point 3 h) [%] | NET Occupancy % (NET; dose 3 mg/kg, time point 3 h) [%] |
| --- | --- | --- | --- | --- | --- | --- | --- | --- |
| Clc1ccc(C2CNCc3cc(-c4cccnn4)ccc32)cc1Cl (stereo not shown) [Example 33, 4-(3,4-dichlorophenyl)-7-(pyridazin-3-yl)-1,2,3,4-tetrahydroisoquinoline] | 7.81 | 7.58 | 49 | 3 | – | – | – | – |
| FC(F)Oc1ccc(-c2ccc3c(c2)CNCC3c2ccc(Cl)c(Cl)c2)nn1 (stereo not shown) [Example 12, 4-(3,4-dichlorophenyl)-7-(6-(difluoromethoxy)pyridazin-3-yl)-1,2,3,4-tetrahydroisoquinoline] | 7.30 | 7.73 | – | – | 82 | 46 | – | – |
| CC1(C)NCC(c2ccc(Cl)c(Cl)c2)c2ccc(-c3ccc4ncnn4c3)cc21 (stereo not shown) [Example 40, 4-(3,4-dichlorophenyl)-7-([1,2,4]triazolo[1,5-a]pyridin-6-yl)-1,1-dimethyl-1,2,3,4-tetrahydroisoquinoline] | 8.68 | 7.29 | – | – | – | – | 74 | 1 |
| CC1(C)NCC(c2ccc(Cl)c(Cl)c2)c2ccc(-c3ccc(N)nn3)cc21 (stereo not shown) [Example 13, 4-(3,4-dichlorophenyl)-7-(6-aminopyridazin-3-yl)-1,1-dimethyl-1,2,3,4-tetrahydroisoquinoline] | 8.62 | 7.01 | – | – | – | – | 55 | 5 |
| Nc1ccc(-c2ccc3c(c2)CNCC3c2ccc(Cl)c(Cl)c2)nn1 (stereo not shown) [Example 34, 6-(4-(3,4-dichlorophenyl)-1,2,3,4-tetrahydroisoquinolin-7-yl)pyridazin-3-amine] | 8.15 | 7.64 | 10 | 11 | – | – | – | – |
| CC1(C)NCC(c2ccc(Cl)c(Cl)c2)c2ccc(-c3cccnn3)cc21 (single isomer, unassigned) [Example 9, 4-(3,4-dichlorophenyl)-1,1-dimethyl-7-(pyridazin-3-yl)-1,2,3,4-tetrahydroisoquinoline] | 8.74 | 6.88 | 60 | 20 | – | – | – | – |
| Cc1noc(C)c1-c1ccc2c(c1)CNCC2c1ccc(Cl)c(Cl)c1 (stereo not shown) [Example 25, 4-(4-(3,4-dichlorophenyl)-1,2,3,4-tetrahydroisoquinolin-7-yl)-3,5-dimethylisoxazole] | 7.33 | 6.71 | – | – | 50 | 0 | – | – |
